Series [1] is described as follows: MTT cytotoxicity assay on differentiated SH-SY5Y cells. The format is cell-based, human. The settings on record: human, differentiated SH-SY5Y, 0.05–5 mM, MTT reduction assay, Hill fit, read-out: LC50. On the procedure: (§1) The SH–SY5Y cell line (DSMZ code: ACC 209) was supplied by the German Collection of Microorganisms and the Cell Culture GmbH (DSMZ) biobank and was cultured according to the supplier’s information. Cells were grown in DMEM:F12 (Dulbecco’s Modified Eagle’s Medium/F12), supplemented with 10% fetal bovine serum (FBS) and 1% antibiotic–antimycotic in a humidified atmosphere with 5% CO2 at 37 °C. Subculture was performed according to biobank instructions when the cultures reached 80–85% of confluence.
(§2) SH-SY5Y cells were trypsinized (trypsin/EDTA; 0.25%) and the cell suspension was seeded in 96-well plates at a density of 2 × 10^4 cells/well and incubated until reaching 80-85% confluence. Cells were differentiated to obtain a dopaminergic neuronal phenotype according to Ferreira et al. with slight modifications (Figure 10). To ensure reproducibility and optimal neuronal differentiation, cells were used between passages (15–25). Briefly, cells were seeded in complete DMEM:F12 medium containing 10 µM retinoic acid (RA) and 2.5% fetal bovine serum (FBS) and maintained for 4 days, with the medium changed on day 2. After this time, the medium was replaced by DMEM:F12 supplemented with 10 µM RA, 80 nM 12-O-tetradecanoylphorbol-13-acetate (TPA), and 2.5% FBS, and the cells were maintained for an additional 4 days (with the medium changed at day 6). The cytotoxicity assay was performed on day 8.
(§3) The SH-SY5Y cells’ viability was evaluated after exposure for 24 h to […]. The 3-(4,5-dimethylthiazol-2-yl) − 2,5-diphenyltetrazolium bromide (MTT) colorimetric assay was performed following the methodology described by Joana Silva et al.. The experimental dose–response results were fitted to the Hill’s sigmoidal non-linear regression model. For each cathinone, the LC50 values (cathinone concentration showing 50% lethality) and their confidence interval at the 95% confidence level ([CI]) were determined. The Hill slope, also known as the Hill coefficient, which describes the steepness of a dose–response curve, and the minimum observable adverse effect concentration (LOAEL) were also determined for all cathinones.
Background: Formazan colour is commonly taken as a measure of viable cells.

Series [2] has as its system differentiated SH-SY5Y cells. The description is as above. The settings on record: lowest observed adverse effect level, differentiated SH-SY5Y, 24 h, MTT. The class given is cell-based, human. On the procedure: as §1, §2, §3
The test system of series [3] is SH-SY5Y cells. Kind of series: Mitochondrial membrane potential (JC-1 probe). The format is cell-based, human. The settings on record: 6 h treatment at LC50, JC-1. On the procedure:
Mitochondrial membrane potential (MMP) was estimated by using the JC-1 fluorescent probe (Molecular Probes, Eugene, OR, USA) as described in Silva et al., 2022 [65]. The formation of JC-1 aggregates (excitation λ: 490 nm; emission λ: 590 nm) and monomers (excitation λ: 490 nm; emission λ: 530 nm) was measured for 30 min using a plate reader (Bio-Tek Synergy plate reader, Bedfordshire, UK). Changes in MMP were calculated as the ratio between JC-1 monomers and aggregates and expressed as a percentage of the control. An FCCP (2.5 µM) and oligomycin A (1 mg/mL) conjugate solution was used as the positive control. All data were obtained from at least three independent experiments (n = 3) and were presented as mean ± standard error of the mean (SEM).

Series [4] deals with T1, Acetylcholinesterase (AChE, EC 3.1.1.7) (Electrophorus electricus, UniProt O42275).
T1 construct: purchased Sigma-Aldrich
Kind of series: Acetylcholinesterase inhibition, modified Ellman colorimetric method. The format is biochemical. The settings on record: for Hillslope: AChE inhibition dose–response curve; for LOAEL: AChE inhibition; for LOAEL / IC50: Ellman assay; for IC50: IC50, AChE inhibition, 0.03–2 mM, Hill fit. The procedure: Acetylcholinesterase (AChE, EC 3.1.1.7) enzymatic activity was assessed using a modified version of Ellman’s colorimetric method, as described by Falé et al.. In this assay, a mixture of 325 μL of 50 mM Tris-HCl buffer (pH 8), 100 μL of a cathinone solution, and 25 μL of AChE (0.1 U/mL in 50 mM Tris–HCl buffer pH 8) were incubated. After a 15 min incubation period, 75 μL of AChI (0.33 mg/mL) was added to 475 μL of DTNB (dithiobis (2-nitrobenzoic acid)) (1.2 mg/mL in Tris–HCl buffer (pH 8) containing 0.1 M NaCl and 0.02 M MgCl2). A control reaction, representing 100% activity, was performed using the same volume of water instead of the cathinone solution. The initial velocity of the enzymatic reaction was measured at 405 nm for 5 min, with all assays carried out in duplicate. The percentage of AChE activity inhibition for different concentrations of cathinones [0.03–2 mM] was determined as the ratio of the initial velocity in the cathinone presence to the initial velocity of the control reaction. Experimental results were fitted to Hill’s sigmoidal dose–response non-linear regression model to determine IC50 values (cathinone concentration showing 50% inhibition), along with their confidence interval at the 95% confidence level ([CI]). The Hill slope coefficients that provide the steepest value of the slope of the dose–response curve and the minimum observable adverse effect concentration (LOAEL) for all cathinones were also determined.
On the technique in general: Ellman's reagent forms a yellow product with free thiols.

Series [5] deals with SH-SY5Y cells. The experiment in a line: Intracellular reactive oxygen species levels (H2-DCFDA probe). The class given is cell-based, human. To be noted: 6 h treatment at LC50. The procedure: Reactive oxygen species (ROS) production was determined by evaluating ROS levels after exposure to cathinones at concentrations corresponding to their LC50 for 6 h. SH-SY5Y cells were washed with 1× PBS and incubated with 100 µL of 2′,7′-dichlorodihydrofluorescein diacetate (H2-DCFDA) (20 µM) in medium without FBS, for 60 min at 37 °C in the dark. Subsequently, the cells were washed with 1× PBS (1×), and the cells were maintained for 30 min at room temperature in 100 µL of PBS. After this time, ROS levels were determined by measuring fluorescence (excitation wavelength (λ): 495 nm; emission λ: 527 nm). Ascorbic acid (A.A) (100 µg/mL) served as the negative control and, hydrogen peroxide (H2O2) (200 µM) was used as the positive control. Results were expressed as a percentage relative to the control. All data were derived from at least three independent experiments (n = 3) and presented as mean ± standard error of the mean (SEM).

By LOAEL is commonly meant the lowest dose or exposure tested at which an adverse effect was seen. The term IC50 denotes the concentration at which inhibition is half-maximal. The low end stands for inhibition by little substance, the high end for a need for much substance. A word on the inhibition: it is how much of the control response was suppressed.

Several values for one entry are separate records, joined by “and”; a condition that tells them apart may be missing. Equal values may be shown once.

T1 sequence (O42275 24-633): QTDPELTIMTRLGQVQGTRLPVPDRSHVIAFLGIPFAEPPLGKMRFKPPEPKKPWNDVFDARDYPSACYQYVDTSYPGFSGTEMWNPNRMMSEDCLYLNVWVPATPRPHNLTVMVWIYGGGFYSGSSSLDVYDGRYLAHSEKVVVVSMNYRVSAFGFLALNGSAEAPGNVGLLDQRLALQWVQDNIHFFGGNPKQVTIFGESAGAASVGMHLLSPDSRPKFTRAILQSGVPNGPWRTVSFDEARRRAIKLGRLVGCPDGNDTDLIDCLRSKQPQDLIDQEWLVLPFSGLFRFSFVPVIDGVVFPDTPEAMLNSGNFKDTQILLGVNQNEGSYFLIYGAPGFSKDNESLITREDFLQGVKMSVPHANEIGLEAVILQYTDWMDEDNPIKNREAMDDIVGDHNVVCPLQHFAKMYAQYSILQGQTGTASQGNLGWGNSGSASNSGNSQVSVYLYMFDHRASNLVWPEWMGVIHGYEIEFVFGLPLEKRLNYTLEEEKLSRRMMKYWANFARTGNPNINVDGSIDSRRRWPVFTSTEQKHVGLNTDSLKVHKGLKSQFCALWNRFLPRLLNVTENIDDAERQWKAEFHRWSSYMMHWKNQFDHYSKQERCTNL

Turning to `CCCCNC(C)C(=O)c1cccc(Cl)c1` (racemic) [3-CBC (7), (R,S)-2-(butylamino)-1-(3-chlorophenyl)propan-1-one], in series [1], the CC50 at 24 h came to 700 µM. Also, in series [2], the LOAEL was determined as 0.1 mM. Also, the “MMP depolarization” value in the series with SH-SY5Y cells [3] is recorded as “more pronounced MMP depolarization than the other cathinones”. In series [4], this compound showed a Hillslope of 1.4, an LOAEL of 0.125 mM and an IC50 of 400 µM.

On to `CCN(CC)C(C)C(=O)c1cccc(Cl)c1` (racemic) [3-Cl-DEC (15), (R,S)-1-(3-chlorophenyl)-2-(diethylamino)propan-1-one], for which the CC50 at 24 h in series [1] was 1200 µM. Further, the LOAEL in series [2] was 1 mM and 1.0 mM. For the same compound, in the series on SH-SY5Y cells [5], the “significant increase in ROS production compared to vehicle” value is reported as “exception”. The “MMP depolarization” value in the series with SH-SY5Y cells [3] is on record as “more pronounced MMP depolarization than the other cathinones”. For the same compound, the “maximum inhibition of AChE among the tested concentrations” value in series [4] (0.03 to 2 mM) is on record as 87%. In series [4], this compound had a Hillslope of 0.9, an LOAEL of 0.063 mM and an IC50 of 300 µM.

As to `CCCCNC(C)C(=O)c1ccc(Cl)cc1` (racemic) [4-CBC (8), (R,S)-2-(butylamino)-1-(4-chlorophenyl)propan-1-one], the CC50 at 24 h in series [1] turned out to be 600 µM. This compound also had an LOAEL in series [2] of 0.5 mM. Further, the “MMP depolarization” value in the series on SH-SY5Y cells [3] is reported as “more pronounced MMP depolarization than the other cathinones”. In series [4], the Hillslope amounted to 5.1, the LOAEL is 0.100 mM and the IC50 was 1300 µM.

For the compound `CC(NC(C)(C)C)C(=O)c1ccc(Cl)cc1` (racemic) [4-Cl-TBC (20), (R,S)-2-(tert-butylamino)-1-(4-chlorophenyl)propan-1-one], in series [1], the CC50 at 24 h was determined as 1300 µM. Besides, the LOAEL in series [2] is 0.5 mM. Further, the “increase in ROS production compared to the vehicle” value in the series on SH-SY5Y cells [5] worked out at 30%. In addition, in series [4], the Hillslope turned out to be 2.7, the LOAEL is listed as 0.500 mM and the IC50 is ~2000 µM. The inhibition at 2000 µM in series [4] (highest tested concentration of 2 mM) turned out to be 48%.

The values above are taken from paper PMC12027149 (International Journal of Molecular Sciences, 2025).
